Reference: ChEMBL document CHEMBL1130778, “The synthesis and evaluation of cyclic ureas as HIV protease inhibitors: modifications of the P1/P1' residues” (Bioorg Med Chem Lett, 1998)

Experiments:
[1] = biological target: Human immunodeficiency virus type 1 protease (Human immunodeficiency virus 1, UniProt Q72874); assay: HIV protease inhibition.
[2] = system: Human immunodeficiency virus 1; assay: Whole cell antiviral activity.; assay type: functional

Row | Compound | Ki [1] [nM] | IC90 [2] [nM]
1 | O=C1N(Cc2ccccc2)[C@H](Cc2ccc(OCCO)cc2)[C@H](O)[C@@H](O)[C@@H](Cc2ccc(OCCO)cc2)N1Cc1ccccc1 | 0.76 | 78
2 | O=C1N(Cc2cccc(-c3cc[nH]n3)c2)[C@H](Cc2ccc(OCc3ccncc3)cc2)[C@H](O)[C@@H](O)[C@@H](Cc2ccc(OCc3ccncc3)cc2)N1Cc1cccc(-c2cc[nH]n2)c1 | 0.071 | 18
3 | CNCCOc1ccc(C[C@@H]2[C@H](O)[C@@H](O)[C@@H](Cc3ccc(OCCNC)cc3)N(Cc3ccccc3)C(=O)N2Cc2ccccc2)cc1 | 1.6 | 800
4 | O=C1N(Cc2ccccc2)[C@H](Cc2ccc(O)cc2)[C@H](O)[C@@H](O)[C@@H](Cc2ccc(O)cc2)N1Cc1ccccc1 | – | 184
5 | COc1ccc(C[C@@H]2[C@H](O)[C@@H](O)[C@@H](Cc3ccc(OC)cc3)N(Cc3cccc(-c4cc[nH]n4)c3)C(=O)N2Cc2cccc(-c3cc[nH]n3)c2)cc1 | 0.078 | 10
6 | O=C1N(Cc2cccc(-c3cc[nH]n3)c2)[C@H](Cc2ccc(O)cc2)[C@H](O)[C@@H](O)[C@@H](Cc2ccc(O)cc2)N1Cc1cccc(-c2cc[nH]n2)c1 | 0.016 | 1340
7 | O=C1N(Cc2ccccc2)[C@H](Cc2ccc(OCCN3CCOCC3)cc2)[C@H](O)[C@@H](O)[C@@H](Cc2ccc(OCCN3CCOCC3)cc2)N1Cc1ccccc1 | 5.9 | 230
8 | O=C1N(Cc2cccc(-c3cc[nH]n3)c2)[C@H](Cc2ccc(OCCN3CCOCC3)cc2)[C@H](O)[C@@H](O)[C@@H](Cc2ccc(OCCN3CCOCC3)cc2)N1Cc1cccc(-c2cc[nH]n2)c1 | 0.13 | 1030
9 | O=C1N(Cc2ccccc2)[C@H](Cc2ccc(OCc3ccncc3)cc2)[C@H](O)[C@@H](O)[C@@H](Cc2ccc(OCc3ccncc3)cc2)N1Cc1ccccc1 | 0.84 | 100
10 | O=C1N(Cc2cccc(-c3cc[nH]n3)c2)[C@H](Cc2ccc(OCCO)cc2)[C@H](O)[C@@H](O)[C@@H](Cc2ccc(OCCO)cc2)N1Cc1cccc(-c2cc[nH]n2)c1 | 0.059 | 462
11 | O=C1N(Cc2ccccc2)[C@H](Cc2ccccc2)[C@H](O)[C@@H](O)[C@@H](Cc2ccccc2)N1Cc1ccccc1 | – | 790
12 | O=C1N(Cc2cccc(-c3cc[nH]n3)c2)[C@H](Cc2ccccc2)[C@H](O)[C@@H](O)[C@@H](Cc2ccccc2)N1Cc1cccc(-c2cc[nH]n2)c1 | – | 56
13 | Nc1cccc(CN2C(=O)N(Cc3cccc(N)c3)[C@H](Cc3ccccc3)[C@H](O)[C@@H](O)[C@H]2Cc2ccccc2)c1 [MOZENAVIR] | – | 126
14 | O=C1N(Cc2ccc(CO)cc2)[C@H](Cc2ccccc2)[C@H](O)[C@@H](O)[C@@H](Cc2ccccc2)N1Cc1ccc(CO)cc1 [DMP-323] | 0.29 | 91
15 | COc1ccc(C[C@@H]2[C@H](O)[C@@H](O)[C@@H](Cc3ccc(OC)cc3)N(Cc3ccccc3)C(=O)N2Cc2ccccc2)cc1 | – | 600
16 | O=C1N(Cc2cccc(-c3cc[nH]n3)c2)[C@H](Cc2ccc(OCc3cccnc3)cc2)[C@H](O)[C@@H](O)[C@@H](Cc2ccc(OCc3cccnc3)cc2)N1Cc1cccc(-c2cc[nH]n2)c1 | 0.059 | 32
17 | CN(C)CCOc1ccc(C[C@@H]2[C@H](O)[C@@H](O)[C@@H](Cc3ccc(OCCN(C)C)cc3)N(Cc3cccc(-c4cc[nH]n4)c3)C(=O)N2Cc2cccc(-c3cc[nH]n3)c2)cc1 | 0.061 | 5400
